Laboratory results from patent US11649255B2, “Indazoles as hematopoietic progenitor kinase 1 (HPK1) inhibitors and methods using same” (1st Biotherapeutics, Inc., priority 2020, dated 2023).

Target: recombinant human HPK1 (Homo sapiens (Human), UniProt Q92918)
Experiment: HPK1 kinase assay (ADP-Glo)
Assay type: biochemical
Conditions: 25 μM ATP, MBP substrate
Procedure, shortened: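 Activity was read as ADP formed, detected by ADP-Glo luminescence after the reaction of 5 ng recombinant human HPK1 with MBP and ATP (stocks 0.5 μg/μl and 25 μM) for 40 min at 30 °C. Buffer was Tris pH 7.5 with MgCl2, BSA and DTT, with compound in 0.5% DMSO. IC50 came from inhibition curves.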

Chain of recombinant human HPK1 (Q92918 whole entry): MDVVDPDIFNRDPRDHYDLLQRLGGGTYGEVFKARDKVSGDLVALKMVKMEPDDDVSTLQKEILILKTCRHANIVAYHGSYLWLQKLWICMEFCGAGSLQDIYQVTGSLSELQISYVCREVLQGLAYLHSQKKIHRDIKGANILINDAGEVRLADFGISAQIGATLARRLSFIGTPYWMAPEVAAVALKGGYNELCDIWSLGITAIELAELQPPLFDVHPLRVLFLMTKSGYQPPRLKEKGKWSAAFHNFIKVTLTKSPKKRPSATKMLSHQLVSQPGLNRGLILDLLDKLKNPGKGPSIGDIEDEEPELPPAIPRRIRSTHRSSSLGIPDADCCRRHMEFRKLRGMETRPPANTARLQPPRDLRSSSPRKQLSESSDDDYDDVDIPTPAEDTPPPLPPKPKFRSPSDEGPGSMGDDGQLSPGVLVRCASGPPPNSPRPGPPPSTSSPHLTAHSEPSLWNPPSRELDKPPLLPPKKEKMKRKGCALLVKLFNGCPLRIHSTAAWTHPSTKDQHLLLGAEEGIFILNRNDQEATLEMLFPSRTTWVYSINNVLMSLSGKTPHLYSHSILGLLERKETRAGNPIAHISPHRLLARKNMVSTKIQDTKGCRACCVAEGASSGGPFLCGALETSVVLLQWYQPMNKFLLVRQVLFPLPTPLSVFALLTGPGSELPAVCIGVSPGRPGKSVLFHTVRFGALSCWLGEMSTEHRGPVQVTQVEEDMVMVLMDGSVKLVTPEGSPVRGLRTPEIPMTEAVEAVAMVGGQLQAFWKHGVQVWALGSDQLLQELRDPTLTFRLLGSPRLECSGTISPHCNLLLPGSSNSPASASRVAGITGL

## COc1c(F)c(Cl)c(-c2ccc3nc(NC(=O)[C@@H]4C[C@@H]4F)sc3c2)c2cn[nH]c12 [Example 80, (1S,2S)-N-(6-(5-chloro-6-fluoro-7-methoxy-1H-indazol-4-yl)benzo[d]thiazol-2-yl)-2-fluorocyclopropane-1-carboxamide]
  IC50: < 100 nM

## CC(C)c1c(F)c(Cl)c(-c2ccc3nc(NC(=O)[C@@H]4C[C@@H]4F)cn3c2)c2cn[nH]c12 [Example 405, (1S,2S)-N-(6-(5-chloro-6-fluoro-7-isopropyl-1H-indazol-4-yl)imidazo[1,2-a]pyridin-2-yl)-2-fluorocyclopropane-1-carboxamide]
  IC50: < 100 nM

## O=C(Nc1cc2cc(-c3c(Cl)c(F)c(Nc4ncccn4)c4[nH]ncc34)ccn2n1)[C@@H]1C[C@@H]1F [Example 601, (1S,2S)-N-(5-(5-chloro-6-fluoro-7-(pyrimidin-2-ylamino)-1H-indazol-4-yl)pyrazolo[1,5-a]pyridin-2-yl)-2-fluorocyclopropane-1-carboxamide]
  IC50: < 100 nM

## Cc1ccc2[nH]ncc2c1-c1ccc2nc(NC(=O)C3CC3(F)F)sc2c1 (centres unmarked) [Example 5, 2,2-difluoro-N-(6-(5-methyl-1H-indazol-4-yl)benzo[d]thiazol-2-yl)cyclopropane-1-carboxamide]
  IC50: 101 to 500 nM

## O=C(Nc1nc2ccc(-c3c(C(F)(F)F)c(F)cc4[nH]ncc34)cc2s1)[C@@H]1C[C@@H]1F [Example 50, (1S,2S)-2-fluoro-N-(6-(6-fluoro-5-(trifluoromethyl)-1H-indazol-4-yl)benzo[d]thiazol-2-yl)cyclopropane-1-carboxamide]
  IC50: < 100 nM

## O=C(Nc1cn2cc(-c3c(Cl)c(F)c(NC4CC4)c4[nH]ncc34)ccc2n1)[C@@H]1C[C@@H]1F [Example 367, (1S,2S)-N-(6-(5-chloro-7-(cyclopropylamino)-6-fluoro-1H-indazol-4-yl)imidazo[1,2-a]pyridin-2-yl)-2-fluorocyclopropane-1-carboxamide]
  IC50: < 100 nM

## CC(=O)Nc1c(F)c(C)c(-c2ccc3nc(NC(=O)[C@@H]4C[C@@H]4F)sc3c2)c2cn[nH]c12 [Example 113, (1S,2S)-N-(6-(7-acetamido-6-fluoro-5-methyl-1H-indazol-4-yl)benzo[d]thiazol-2-yl)-2-fluorocyclopropane-1-carboxamide]
  IC50: < 100 nM

## Cc1c(F)c(OCCNC(=O)C(F)(F)F)c2[nH]ncc2c1-c1ccn2nc(NC(=O)[C@@H]3C[C@@H]3F)cc2c1 [Example 547, (1S,2S)-2-fluoro-N-(5-(6-fluoro-5-methyl-7-(2-(2,2,2-trifluoroacetamido)ethoxy)-1H-indazol-4-yl)pyrazolo[1,5-a]pyridin-2-yl)cyclopropane-1-carboxamide]
  IC50: < 100 nM

## O=C(Nc1nc2ccc(-c3c(Br)c(F)cc4[nH]ncc34)nc2s1)[C@@H]1C[C@@H]1F [Example 160, (1S,2S)-N-(5-(5-bromo-6-fluoro-1H-indazol-4-yl)thiazolo[5,4-b]pyridin-2-yl)-2-fluorocyclopropane-1-carboxamide]
  IC50: < 100 nM

## O=C(Nc1cn2cc(-c3c(Cl)c(F)c(NCC4CC4)c4[nH]ncc34)ccc2n1)[C@@H]1C[C@@H]1F [Example 421, (1S,2S)-N-(6-(5-chloro-7-((cyclopropylmethyl)amino)-6-fluoro-1H-indazol-4-yl)imidazo[1,2-a]pyridin-2-yl)-2-fluorocyclopropane-1-carboxamide]
  IC50: < 100 nM

## O=C(Nc1cc2cc(-c3c(Cl)c(F)c(N4CCNCC4)c4[nH]ncc34)ccn2n1)[C@@H]1C[C@@H]1F [Example 500, (1S,2S)-N-(5-(5-chloro-6-fluoro-7-(piperazin-1-yl)-1H-indazol-4-yl)pyrazolo[1,5-a]pyridin-2-yl)-2-fluorocyclopropane-1-carboxamide]
  IC50: 101 to 500 nM

## Cc1c(F)cc2[nH]ncc2c1-c1ccc2nc(NC(=O)[C@@H]3C[C@@H]3F)cn2c1 [Example 250, (1S,2S)-2-fluoro-N-(6-(6-fluoro-5-methyl-1H-indazol-4-yl)imidazo[1,2-a]pyridin-2-yl)cyclopropane-1-carboxamide]
  IC50: < 100 nM

## Cc1ccc2[nH]ncc2c1-c1ccc2nc(NC(=O)C3CC3)sc2c1 [Example 1, N-(6-(5-methyl-1H-indazol-4-yl)benzo[d]thiazol-2-yl)cyclopropanecarboxamide]
  IC50: 101 to 500 nM

## Nc1cc2[nH]ncc2c(-c2ccc3nc(NC(=O)[C@@H]4C[C@@H]4F)cn3c2)c1Cl [Example 284, (1S,2S)-N-(6-(6-amino-5-chloro-1H-indazol-4-yl)imidazo[1,2-a]pyridin-2-yl)-2-fluorocyclopropane-1-carboxamide]
  IC50: 101 to 500 nM

## CC(=O)Nc1c(F)c(Cl)c(-c2ccn3nc(NC(=O)[C@@H]4C[C@@H]4F)cc3c2)c2cn[nH]c12 [Example 537, (1S,2S)-N-(5-(7-acetamido-5-chloro-6-fluoro-1H-indazol-4-yl)pyrazolo[1,5-a]pyridin-2-yl)-2-fluorocyclopropane-1-carboxamide]
  IC50: < 100 nM

## CC(=O)c1c(F)c(Cl)c(-c2ccc3nc(NC(=O)[C@@H]4C[C@@H]4F)sc3c2)c2cn[nH]c12 [Example 128, (1S,2S)-N-(6-(7-acetyl-5-chloro-6-fluoro-1H-indazol-4-yl)benzo[d]thiazol-2-yl)-2-fluorocyclopropane-1-carboxamide]
  IC50: 101 to 500 nM

## CP(C)(=O)c1c(F)c(Cl)c(-c2ccn3nc(NC(=O)[C@@H]4C[C@@H]4F)cc3c2)c2cn[nH]c12 [Example 478, (1S,2S)-N-(5-(5-chloro-7-(dimethylphosphoryl)-6-fluoro-1H-indazol-4-yl)pyrazolo[1,5-a]pyridin-2-yl)-2-fluorocyclopropane-1-carboxamide]
  IC50: 501 to 1000 nM

## CN(c1ncccn1)c1c(F)c(Cl)c(-c2ccn3nc(NC(=O)[C@@H]4C[C@@H]4F)cc3c2)c2cn[nH]c12 [Example 596, (1S,2S)-N-(5-(5-chloro-6-fluoro-7-(methyl(pyrimidin-2-yl)amino)-1H-indazol-4-yl)pyrazolo[1,5-a]pyridin-2-yl)-2-fluorocyclopropane-1-carboxamide]
  IC50: < 100 nM

## CSc1c(F)c(F)c2[nH]ncc2c1-c1ccn2nc(NC(=O)[C@H]3C[C@@H]3F)cc2c1 [Example 600, (1R,2S)-N-(5-(6,7-difluoro-5-(methylthio)-1H-indazol-4-yl)pyrazolo[1,5-a]pyridin-2-yl)-2-fluorocyclopropane-1-carboxamide]
  IC50: < 100 nM

## O=C(Nc1cc2cc(-c3c(C4CC4)ccc4[nH]ncc34)ccn2n1)[C@@H]1C[C@@H]1F [Example 459, (1S,2S)-N-(5-(5-cyclopropyl-1H-indazol-4-yl)pyrazolo[1,5-a]pyridin-2-yl)-2-fluorocyclopropane-1-carboxamide]
  IC50: 101 to 500 nM

## O=C(Nc1cn2cc(-c3c(Cl)c(F)c(SCCO)c4[nH]ncc34)ccc2n1)[C@@H]1C[C@@H]1F [Example 290, (1S,2S)-N-(6-(5-chloro-6-fluoro-7-((2-hydroxyethyl)thio)-1H-indazol-4-yl)imidazo[1,2-a]pyridin-2-yl)-2-fluorocyclopropane-1-carboxamide]
  IC50: < 100 nM

## O=C(Nc1cn2cc(-c3c(Cl)c(F)c(O)c4[nH]ncc34)ccc2n1)[C@@H]1C[C@@H]1F [Example 295, (1S,2S)-N-(6-(5-chloro-6-fluoro-7-hydroxy-1H-indazol-4-yl)imidazo[1,2-a]pyridin-2-yl)-2-fluorocyclopropane-1-carboxamide]
  IC50: < 100 nM

## CCCCC(=O)Nc1nc2ccc(-c3c(C)ccc4[nH]ncc34)cc2s1 [Example 9, N-(6-(5-methyl-1H-indazol-4-yl)benzo[d]thiazol-2-yl)pentanamide]
  IC50: > 1000 nM
